Results: US20140148477A1, “ANIMAL ECTOPARASITE-CONTROLLING AGENT AND METHOD FOR PREVENTING OR TREATING INFECTION IN ANIMALS CAUSED BY PARASITES BY USING THE CONTROLLING AGENT” (OTSUKA AGRITECHNO CO., LTD., priority 2011, published 2014)

Test: Dissolution in acetone when preparing the test solution
Assay type: physicochemical
Settings: acetone added so that the concentration was 0.5 mg/ml
Method: Acetone was added to each of Test Compounds 1 to 17 so that the concentration was 0.5 mg/ml, thereby preparing solutions.

## COC(Cn1nc(-c2cc(F)cc(F)c2)cc1O[C@@H]1CCN(c2ccc(C(F)(F)F)cn2)C[C@@H]1C)OC [Test Compound 15]
  solubility in acetone: not dissolved in acetone
